Numbers after ± are expanded uncertainties.
Assay: xn = mol fraction of the nth substance listed
Conditions: Liquid, Vibrating tube method, x1 = 1

CCO [ethanol] + Cc1ccccc1
mass density [kg/m3]
Conditions	100 kPa	5000 kPa	10000 kPa	15000 kPa	20000 kPa	25000 kPa	30000 kPa	35000 kPa	40000 kPa	45000 kPa
283.15 K	798 ± 0.2	802 ± 0.3	805.9 ± 0.3	809.5 ± 0.3	813 ± 0.3	816.4 ± 0.3	819.7 ± 0.4	822.8 ± 0.4	825.9 ± 0.4	828.8 ± 0.4
293.15 K	789.5 ± 0.2	793.7 ± 0.3	797.8 ± 0.3	801.6 ± 0.3	805.3 ± 0.3	808.9 ± 0.3	812.3 ± 0.4	815.6 ± 0.4	818.7 ± 0.4	821.8 ± 0.4
303.15 K	780.9 ± 0.2	785.3 ± 0.3	789.6 ± 0.3	793.7 ± 0.3	797.5 ± 0.3	801.3 ± 0.3	804.8 ± 0.4	808.2 ± 0.4	811.5 ± 0.4	814.7 ± 0.4
313.15 K	772.1 ± 0.2	776.8 ± 0.3	781.3 ± 0.3	785.6 ± 0.3	789.6 ± 0.3	793.5 ± 0.4	797.2 ± 0.4	800.8 ± 0.4	804.2 ± 0.4	807.6 ± 0.5
323.15 K	763.3 ± 0.2	768.3 ± 0.3	773 ± 0.3	777.6 ± 0.3	781.8 ± 0.3	785.9 ± 0.4	789.7 ± 0.4	793.5 ± 0.4	797.1 ± 0.4	800.5 ± 0.5
333.15 K	754 ± 0.2	759.3 ± 0.3	764.3 ± 0.3	769.1 ± 0.3	773.6 ± 0.3	777.8 ± 0.4	781.9 ± 0.4	785.8 ± 0.4	789.5 ± 0.5	793.1 ± 0.5
343.15 K	744.5 ± 0.2	750.1 ± 0.3	755.5 ± 0.3	760.5 ± 0.3	765.3 ± 0.4	769.8 ± 0.4	774 ± 0.4	778.1 ± 0.4	782 ± 0.5	785.7 ± 0.5
353.15 K	–	740.6 ± 0.3	746.4 ± 0.3	751.7 ± 0.3	756.7 ± 0.4	761.5 ± 0.4	766 ± 0.4	770.2 ± 0.4	774.3 ± 0.5	778.2 ± 0.5
